According to PMC5702381 (Advances in Therapy, 2017):
Read-outs that look alike come from different tables or passages of the source.

How the values were obtained:
[1] = for AUCinf / C max: geometric mean ± SD; for CL/F: arithmetic mean ± SD; for t max: median (range)
[2] = format: in vivo, human; details: for CL/F: arithmetic mean ± SD
[3] = format: in vivo, human; details: for CL/F: arithmetic mean ± SD; remark: listed apart in the source
Safety assessments = format: in vivo, human
[4] = healthy volunteers; cited from earlier work
CYP2B6 = details: cited from earlier work
CYP2C19 [5] = details: cited from earlier work
CYP3A4 = details: in vitro; ref unpublished data; cited from earlier work
CYP2C9 = details: in vitro; ref unpublished data; cited from earlier work
CYP2C19 [6] = details: in vitro; ref unpublished data; cited from earlier work
[7] = healthy volunteers; cited from earlier work; remark: listed apart in the source
[8] = format: in vivo, human; details: for CL/F: arithmetic mean ± SD; remark: listed apart in the source
prothrombin time (PT) = experiment: Study 15L-CL-018: warfarin pharmacodynamics; format: in vivo, human; details: for AUCPT;0–168 h: geometric mean ± SD
[9] = warfarin 25 mg + amenamevir 200 mg once daily, n = 18
[10] = warfarin 25 mg + amenamevir 400 mg once daily, n = 15
[11] = warfarin 25 mg alone, amenamevir 400 mg group, n = 17
[12] = warfarin + amenamevir 200 mg once daily
[13] = warfarin + amenamevir 400 mg once daily
[14] = warfarin alone, amenamevir 200 mg group
[15] = warfarin alone, amenamevir 400 mg group
[16] = with ketoconazole coadministration vs amenamevir alone
[17] = in the presence of rifampicin vs amenamevir alone

Which AUCinf [1, 9] does the source give for CC(=O)C[C@H](c1ccccc1)c1c(O)c2ccccc2oc1=O [(R)-Warfarin, (R)-warfarin] here?
The AUCinf was 67,092 ± 18,315 ng h/mL.

And the AUCinf [1, 10]?
Its AUCinf is 68,723 ± 12,736 ng h/mL.

And the AUCinf [1, 11]?
The AUCinf was 75,652 ± 18,160 ng h/mL.

What about the CL/F [1, 12] of the same compound?
Its CL/F is 0.18 ± 0.04 L/h.

What about the C max [1, 12] of the same compound?
Its C max is 1240 ± 134 ng/mL.

And the t max [1, 12]?
Its t max is 4.0 (1.0–12.0) h.

What about the CL/F [1, 13] of the same compound?
The CL/F was 0.17 ± 0.03 L/h.

What about the C max [1, 13] of the same compound?
Its C max is 1262 ± 232 ng/mL.

What about the t max [1, 13] of the same compound?
The t max was 4.0 (2.0–12.0) h.

And the CL/F [1, 14]?
The CL/F was 0.17 ± 0.04 L/h.

What about the C max [1, 14] of the same compound?
Its C max is 1197 ± 133 ng/mL.

What about the t max [1, 14] of the same compound?
The t max was 4.0 (2.0–4.0) h.

What about the CL/F [1, 15] of the same compound?
Its CL/F is 0.16 ± 0.04 L/h.

And the C max [1, 15]?
Its C max is 1187 ± 149 ng/mL.

And the t max [1, 15]?
The t max was 4.0 (2.0–12.0) h.

With CC(=O)C[C@@H](c1ccccc1)c1c(O)c2ccccc2oc1=O [(S)-Warfarin, (S)-warfarin] as the compound, how does the AUCinf [1, 9] read?
Its AUCinf is 46,725 ± 18,437 ng h/mL.

What about the AUCinf [1, 10] of the same compound?
The AUCinf was 45,032 ± 23,503 ng h/mL.

What about the AUCinf [1, 11] of the same compound?
Its AUCinf is 50,329 ± 24,609 ng h/mL.

And the CL/F [1, 12]?
The CL/F was 0.26 ± 0.07 L/h.

What about the C max [1, 12] of the same compound?
The C max was 1217 ± 134 ng/mL.

What about the t max [1, 12] of the same compound?
Its t max is 4.0 (1.0–4.0) h.

What about the CL/F [1, 13] of the same compound?
The CL/F was 0.27 ± 0.08 L/h.

And the C max [1, 13]?
Its C max is 1251 ± 237 ng/mL.

And the t max [1, 13]?
Its t max is 2.0 (1.0–4.0) h.

And the CL/F [1, 14]?
The CL/F was 0.25 ± 0.07 L/h.

What about the C max [1, 14] of the same compound?
The C max was 1194 ± 132 ng/mL.

What about the t max [1, 14] of the same compound?
Its t max is 4.0 (2.0–4.0) h.

And the CL/F [1, 15]?
The CL/F was 0.25 ± 0.08 L/h.

And the C max [1, 15]?
Its C max is 1168 ± 162 ng/mL.

And the t max [1, 15]?
Its t max is 4.0 (1.0–4.0) h.

With Cc1cccc(C)c1N(CC(=O)Nc1ccc(-c2ncon2)cc1)C(=O)C1CCS(=O)(=O)CC1 [Amenamevir, amenamevir] as the compound, how does the CL/F ([2]; amenamevir 400 mg + ketoconazole 400 mg once daily) read?
The CL/F was 8.0 ± 2.1 L/h.

What about the CL/F ([2]; amenamevir 400 mg alone) of the same compound?
The CL/F was 20.8 ± 5.9 L/h.

And the “pharmacokinetic interaction with ketoconazole (90% CI of LS GMR vs 0.80–1.25)” value ([2]; based on AUCinf)?
The value was “significant interaction”.

And the Cmax ([2]; human, plasma, oral, 400 mg)?
Its Cmax is 1450 ± 329 ng/mL.

What about the half-life ([2]; human, plasma, oral, 400 mg) of the same compound?
Its half-life is 8.1 ± 1.9 h.

What about the t max ([2]; human, plasma, oral, 400 mg) of the same compound?
Its t max is 4 h.

What about the “decrease of CL/F” value [2, 16] of the same compound?
The value was 2.6 fold.

What about the “increase of mean t ½” value [2, 16] of the same compound?
The value was 2.2 fold.

And the CL/F ([3]; amenamevir 400 mg + rifampicin 600 mg once daily)?
The CL/F was 133.5 ± 40.0 L/h.

And the CL/F ([3]; amenamevir 400 mg alone)?
Its CL/F is 22.1 ± 5.9 L/h.

What about the “pharmacokinetic interaction with rifampicin (90% CI of LS GMR vs 0.80–1.25)” value ([3]; based on C max and AUCinf) of the same compound?
Its value is “significant interaction”.

And the Cmax ([3]; human, plasma, oral, 400 mg)?
The Cmax was 1320 ± 282 ng/mL.

What about the half-life ([3]; human, plasma, oral, 400 mg) of the same compound?
Its half-life is 8 ± 1.2 h.

And the t max ([3]; human, plasma, oral, 400 mg)?
Its t max is 3 h.

What about the “decrease of mean t ½” value [3, 17] of the same compound?
The value was 2.7 fold.

What about the “increase of mean CL/F” value [3, 17] of the same compound?
Its value is “sixfold”.

And the “deaths, serious adverse events” value (Safety assessments; across all four studies)?
The value was “no deaths or serious adverse events reported”.

And the safety and tolerability (Safety assessments; across all four studies, healthy male adults)?
Its safety and tolerability is “safe and generally well tolerated”.

And the “participants reporting TEAEs” value (Safety assessments; study 15L-CL-010, group that received the 200-mg dose of amenamevir (with single doses of midazolam 7.5 mg))?
Its value is 9.1%.

And the “participants reporting TEAEs” value (Safety assessments; study 15L-CL-010, group that received the 400-mg dose of amenamevir (with single doses of midazolam 7.5 mg))?
Its value is 9.1%.

And the “TEAEs considered to be related to the study drug” value (Safety assessments; study 15L-CL-018, 200-mg amenamevir dose)?
Its value is “myalgia”.

And the “TEAEs considered to be related to the study drug” value (Safety assessments; study 15L-CL-018, 400-mg amenamevir dose)?
Its value is “back pain, abdominal pain, and dyspepsia”.

And the “urinary excretion as unchanged drug” value [4]?
Its value is “approximately 10%”.

And the “correlation of metabolism with marker-enzyme activity” value (CYP2B6)?
Its value is “significantly correlated”.

And the “correlation of metabolism with marker-enzyme activity” value (CYP2C19 [5])?
The value was “significantly correlated”.

What about the “induction of enzyme activity” value (CYP3A4) of the same compound?
The value was “potentially induces”.

What about the “induction of enzyme activity” value (CYP2C9) of the same compound?
The value was “potentially induces”.

And the “induction of enzyme activity” value (CYP2C19 [6])?
The value was “weak potential for inducing”.

What about the “change of AUCinf when administered with food” value [7] of the same compound?
The value was “almost doubling”.

Which “pharmacokinetic interaction with amenamevir (90% CI of LS GMR vs 0.80–1.25)” value ([8]; amenamevir 400 mg once daily, based on C max and AUCinf) does the source give for Cc1ncc2n1-c1ccc(Cl)cc1C(c1ccccc1F)=NC2 [Midazolam, midazolam] here?
Its value is “significant interaction”.

What about the “pharmacokinetic interaction with amenamevir (90% CI of LS GMR vs 0.80–1.25)” value ([8]; amenamevir 200-mg dose, based on AUCinf) of the same compound?
The value was “significant interaction”.

And the t max ([8]; human, plasma, oral, 200 mg)?
Its t max is 1.5 h.

And the t max ([8]; human, plasma, oral, 400 mg)?
The t max was 1.5 h.

And the CL/F ([8]; midazolam + amenamevir 200 mg once daily)?
Its CL/F is 109.0 ± 43.4 L/h.

And the CL/F ([8]; midazolam + amenamevir 400 mg once daily)?
Its CL/F is 143.8 ± 68.0 L/h.

And the t max ([8]; midazolam + amenamevir 400 mg once daily, median (range))?
Its t max is 1.0 (0.5–4.0) h.

What about the CL/F ([8]; midazolam alone, amenamevir 200 mg group) of the same compound?
The CL/F was 80.1 ± 37.0 L/h.

What about the CL/F ([8]; midazolam alone, amenamevir 400 mg group) of the same compound?
Its CL/F is 78.2 ± 39.2 L/h.

What does the source list for CC(=O)CC(c1ccccc1)c1c(O)c2ccccc2oc1=O (centres unmarked) [Warfarin, warfarin]?
AUCPT;0–168 h (prothrombin time (PT); warfarin + amenamevir 200 mg once daily, n = 18): 2411 ± 199 s h; AUCPT;0–168 h (prothrombin time (PT); warfarin + amenamevir 400 mg once daily, n = 15): 2425 ± 163 s h; AUCPT;0–168 h (prothrombin time (PT); warfarin alone, amenamevir 400 mg group, n = 17): 2556 ± 254 s h; tPTmax (prothrombin time (PT); warfarin alone, amenamevir 400 mg group, arithmetic mean ± SD): 39.5 ± 14.6 h; TEAEs considered to be related to the study drug (Safety assessments; study 15L-CL-018, warfarin 25 mg alone): nausea and dyspepsia

With CC(=O)N1CCN(c2ccc(OCC3COC(Cn4ccnc4)(c4ccc(Cl)cc4Cl)O3)cc2)CC1 (centres unmarked) [ketoconazole] as the compound, how does the “participants reporting headache (TEAE)” value (Safety assessments; study 15L-CL-008, during the treatment named, n = 22) read?
Its value is 18.2%.
